From patent publication US20110207779A1, “PROCESS FOR THE PREPARATION OF ESOMEPRAZOLE MAGNESIUM” (GLENMARK GENERICS LTD, priority 2010, published 2011) come the findings set out here.

Each structure is given as a SMILES string.

This data set is described as follows: R-isomer content of formulated esomeprazole magnesium dihydrate after incubation in a closed container (chiral HPLC). Type of data set: physicochemical. Particulars: formulated in above mentioned dosage forms (capsules, mini-tablets); incubated in a closed container; temperature and time not given. The protocol:
The content of R-isomer in esomeprazole magnesium dihydrate was measured by chiral high performance liquid chromatography equipped with quaternary gradient pumps, variable wavelength UV detector attached with data recorder and integrator software under the following conditions:
Buffer preparation: mix 70 mL of 156.0 g/l solution of sodium dihydrogen phosphate R with 20 mL of a 179.1 g/l solution of disodium hydrogen phosphate R. Dilute with water to 1000 mL and then dilute 250 mL of this solution with water to 1000 ml. Mobile phase: Acetonitrile: buffer solution pH 6.0 (65:435, v/v).

Regarding `COc1ccc2[n-]c([S@@+]([O-])Cc3ncc(C)c(OC)c3C)nc2c1.COc1ccc2[n-]c([S@@+]([O-])Cc3ncc(C)c(OC)c3C)nc2c1.O.O.[Mg+2]` [Esomeprazole magnesium dihydrate, esomeprazole magnesium dihydrate], the “R-isomer content after formulation and incubation (chiral stability)” value was “remains within the range of R-isomer content”.
